For orientation: EC50 means the concentration that produces a half-maximal response. Low values mean a more potent agent, high ones a less potent agent.

Counter-ions that a name gives are not always drawn.

The text below walks through data of patent US10864211B2, “Hydroxy isoxazole compounds useful as GPR120 agonists” (Merck Sharp & Dohme Corp., priority 2016, dated 2020).

In the assay the target is T1, human GPR120 (Homo sapiens, UniProt Q5NUL3).
T1 construct: expressed in transfected cells; host or cells: CHO-K1
T1 sequence (Q5NUL3 1-361): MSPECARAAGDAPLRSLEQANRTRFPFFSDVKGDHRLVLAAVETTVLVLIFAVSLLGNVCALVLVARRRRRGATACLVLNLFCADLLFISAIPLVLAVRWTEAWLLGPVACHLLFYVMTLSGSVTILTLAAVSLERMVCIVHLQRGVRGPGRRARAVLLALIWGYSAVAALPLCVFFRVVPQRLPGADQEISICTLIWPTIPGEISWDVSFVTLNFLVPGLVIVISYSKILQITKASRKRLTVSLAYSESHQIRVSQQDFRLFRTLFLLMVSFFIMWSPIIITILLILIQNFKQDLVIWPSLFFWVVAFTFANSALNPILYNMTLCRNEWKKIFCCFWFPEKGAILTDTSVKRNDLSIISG
As to the kind of experiment: Human GPR120 IP1 assay (inositol phosphate turnover). The class given is cell-based. The following applies: IP1 accumulation in CHO-K1 cells stably expressing the short form of human GPR120. The source says:
The binding of small molecule agonists to the G-protein-coupled receptor GPR120 activates phospholipase C, and leads to the generation of inositol 1,4,5-trisphosphate (InsP3 or IP3). IP3 is subsequently de-phosphorylated to IP1, which accumulates in cells and is stable in the presence of lithium chloride.
In the present method, agonist-induced activation of the human and rat GPR120 receptor was monitored by measuring the accumulation of IP1 in CHO-K1 cells that were stably expressing the short form of human GPR120 (Accession #NM_001195755) or HEK293 cells stably expressing rat GPR120 (Accession #NM_001047088). Following agonist addition, GPR120 activation and subsequent accumulation of IP1 was measured using a homogeneous Time Resolved Fluorescence-based ELISA commercially available from CisBio (IP-one ELISA Kit). The IP-One ELISA was a competitive immunoassay which uses IP1 labeled with […] and a terbium cryptate-labeled anti-IP1 monoclonal antibody. […] The signal loss was then back calculated to IP1 concentration using an IP1 standard curve. Determination of IP1 concentration was a direct measure of GPR120 activation and was used to determine compound potency (EC50).
Human GPR120 stable cell-lines were generated in CHO cells. The expression plasmids were transfected using lipofectamine (Life Technologies) following manufacturer's instructions. Stable cell-lines were generated following drug selection and single cell cloning. Rat GPR120 stable cell-lines were generated in HEK cells using the Jump-In™ cell engineering platform (Life Technologies) following manufacturer's instructions. Stable cell-lines were generated following drug selection and single cell cloning.
The assay was performed in 384-well format. CHO cells stably expressing human GPR120 were plated at 20,000 cells per well in growth medium (DMEM/F12, 10% fetal calf serum). HEK293 cells stably expressing rat GPR120 were plated at […] per well in growth medium (DMEM, 10% fetal calf serum). Cell plates were then incubated 16 hours at 37 degrees in a 5% CO2 incubator. Measurement of Inositol Phosphate Turnover (IP1) was performed using the CisBio IP-One kit (Part number 62IPAPEB). After the 16 hour incubation, the growth media was removed by centrifugation using the BlueWasher (AusWasher GUI Ver. v1.0.1.8) Protocol #21-“Light Dry” and 10 μl of stimulation buffer (prepared as described in the kit) was added to each well. In a separate plate, compounds were diluted in DMSO (200-fold over the final concentration in the assay well) and 50 nl was acoustically transferred to the appropriate well in the assay cell plate. The plates were then incubated for 60 minutes at 37 degrees in a 5% CO2 incubator. 10 μl of detection buffer (also prepared as described in the IP-One kit) was added to each well and the plates were incubated at room temperature for 60 minutes in the dark. The plates were then read in a Perkin ElmerEnVision or equivalent reader able to measure FRET. Fluorescent ratio of emission at 665 and 620 nm was then converted to the IP1 concentration by back calculating from an IP1 standard curve prepared at the time of the assay. The data was normalized to % activity using a reference compound, and the EC50 values were determined using a standard 4-parameter fit.
In the case of `CCc1ccc([C@H]2C[C@@H](Oc3ccc(-c4onc(O)c4F)cn3)C2)cc1` [Example 13, ammonium 5-(6-{[cis-3-(4-ethylphenyl)cyclobuty]oxy}pyridin-3-yl)-4-fluoroisoxazol-3-olate], the response was half-maximal at 181 nM (EC50).

As for `CCc1ccc([C@H]2C[C@@H](Oc3ccc(-c4cc(O)no4)cn3)C2)cc1` [Example 14, 5-(6-{[cis-3-(4-ethylphenyl)-cyclobutyl]oxy}pyridin-3-yl)isoxazol-3-ol], the EC50 amounted to 19 nM. Against the preceding molecule, the EC50 is about 9.5-fold lower.

In turn, `Oc1cc(-c2ccc(OC3CC(c4ccc(C5CC5)cc4)C3)nc2)on1` (stereo not drawn) [Example 15, 5-(6-{[3-(4-cyclo-propyl-phenyl)cyclobutyl]oxy}pyridin-3-yl)isoxazol-3-ol] returned a concentration for a half-maximal effect (EC50) of 41 nM. Against the preceding molecule, the EC50 is about 2.2-fold higher.

For `Oc1cc(-c2cnc(O[C@H]3C[C@@H](c4ccc(-c5cnco5)cc4)C3)cn2)on1` [Example 16, 5-[5-({cis-3-[4-(1,3-oxazol-5-yl)phenyl]cyclobutyl}oxy)pyrazin-2-yl]isoxazol-3-ol], it took 64 nM to reach a half-maximal effect (EC50).

`Oc1cc(-c2cnc(O[C@H]3C[C@@H](c4ccc(-c5cc(F)ccn5)cc4)C3)cn2)on1` [Example 17, ammonium 5-[5-({cis-3-[4-(4-fluoropyridin-2-yl)phenyl]cyclobutyl}oxy)pyrazin-2-yl]isoxazol-3-olate] came in with a 50% effective concentration (EC50) of 86 nM.

`Oc1cc(-c2cnc(O[C@H]3C[C@@H](c4ccc(-c5ccc(C(F)(F)F)nc5)cc4)C3)cn2)on1` [Example 18, 5-{5-[(cis-3-{4-[6-(trifluoromethyl)pyridin-3-yl]phenyl}cyclobutyl)oxy]pyrazin-2-yl}isoxazol-3-ol] showed a half-maximal effective concentration (EC50) of 134 nM.

`Oc1cc(-c2cnc(O[C@H]3C[C@@H](c4cccc(-c5cnco5)c4)C3)cn2)on1` [Example 19, ammonium 5-[5-({cis-3-[3-(1,3-oxazol-5-yl)phenyl]-cyclobutyl}oxy)pyrazin-2-yl]isoxazol-3-olate] gave a concentration for a half-maximal effect (EC50) of 75 nM.

For `Oc1cc(-c2cnc(O[C@H]3C[C@@H](c4ccc(C5CC5)cc4)C3)cn2)on1` [Example 20, ammonium 5-(5-{[cis-3-(4-cyclopropylphenyl)cyclobutyl]oxy}pyrazin-2-yl)isoxazol-3-olate], the concentration giving a half-maximal response (EC50) was 42 nM.

In the case of `Oc1cc(-c2ccc(O[C@H]3C[C@@H](c4ccnc(C(F)(F)F)c4)C3)nc2)on1` [Example 21, 5-(3-hydroxyisoxazol-5-yl)-2-({cis-3-[2-(trifluoromethyl)-pyridin-4-yl]cyclobutyl}-oxy)pyridinium chloride], the concentration for a half-maximal effect (EC50) worked out at 254 nM.

The molecule `CCOc1ccc([C@H]2C[C@@H](Oc3ccc(-c4cc(O)no4)cn3)C2)cn1` [Example 22, 2-ethoxy-5-(cis-3-{[5-(3-hydroxyisoxazol-5-yl)pyridin-2-yl]oxy}cyclobutyl)-pyridinium chloride] gave an EC50 of 92 nM.

Molecule `Oc1cc(-c2ccc(O[C@H]3C[C@@H](c4ccc(C(F)(F)F)cn4)C3)nc2)on1` [Example 24, 5-[6-({cis-3-[5-(trifloromethyl)pyridin-2-yl]cyclobutyl}oxy)pyridin-3-yl]isoxazol-3-ol] registered an EC50 of 19 nM.

The molecule `Oc1cc(-c2cnc(O[C@H]3C[C@@H](c4ccc(C(F)(F)F)cn4)C3)cn2)on1` [Example 25, 5-[5-({cis-3-[5-(trifluoromethyl)pyridin-2-yl]cyclobutyl}oxy)pyrazin-2-yl]isoxazol-3-ol] yielded a half-maximal effective concentration (EC50) of 46 nM.

`Oc1cc(-c2cnc(O[C@H]3C[C@@H](c4ccc(OC(F)(F)F)cn4)C3)cn2)on1` [Example 26, 5-[5-({cis-3-[5-(trifluoromethoxy)pyridin-2-yl]cyclobutyl}oxy)pyrazin-2-yl]isoxazol-3-ol]: the concentration giving a half-maximal response (EC50) came out at 86 nM.

For the molecule `CCOc1cc([C@H]2C[C@H](Oc3cnc(-c4cc(O)no4)cn3)C2)ccn1` [Example 27, sodium 5-(5-{[trans-3-(2-ethoxypyridin-4-yl)cyclobutyl]oxy}pyrazin-2-yl)isoxazol-3-olate], a half-maximal response (EC50) required 177 nM. This EC50 lies about 2.1-fold higher than the previous one.

`Oc1cc(-c2cnc(O[C@H]3C[C@H](c4ccc(C5CC(F)(F)C5)cc4)C3)cn2)on1` [Example 29, 5-[5-({trans-3-[4-(3,3-difluorocyclobutyl)phenyl]cyclobutyl}oxy)pyrazin-2-yl]isoxazol-3-ol] yielded an EC50 of 171 nM. The EC50 values of the last two molecules are within 1.5-fold of each other.

`Oc1cc(-c2cnc(O[C@H]3C[C@@H](c4ccc(C5CC(F)(F)C5)cc4)C3)cn2)on1` [Example 30, 5-[5-({cis-3-[4-(3,3-difluorocyclobutyl)phenyl]cyclobutyl}oxy)pyrazin-2-yl)isoxazol-3-ol] had an EC50 of 155 nM. This EC50 and that of the molecule before are within 1.5-fold of each other.

Molecule `Oc1cc(-c2ccc(O[C@H]3C[C@H](c4ccnc(OC5CC5)c4)C3)nc2)on1` [Example 31, sodium 5-[6-({trans-3-[2-(cyclopropyloxy)pyridin-4-yl]cyclobutyl}oxy)pyridin-3-yl]isoxazol-3-olate] gave an EC50 of 62 nM. This EC50 is about 2.5-fold lower than that of the molecule before.

`Oc1cc(-c2ccc(O[C@H]3C[C@@H](c4ccnc(OC5CC5)c4)C3)nc2)on1` [Example 32, 5-[6-({cis-3-[2-(cyclopropyloxy)pyridin-4-yl]cyclobutyl}oxy)pyridin-3-yl]isoxazol-3-ol] returned an EC50 of 16 nM.

Turning to `Oc1cc(-c2cnc(O[C@H]3C[C@H](c4ccnc(OC5CC5)c4)C3)cn2)on1` [Example 33, sodium 5-[5-({trans-3-[2-(cyclopropyloxy)pyridin-4-yl]cyclobutyl}oxy)pyrazin-2-yl]isoxazol-3-olate], the EC50 amounted to 320 nM.

In turn, `Oc1cc(-c2cnc(O[C@H]3C[C@@H](c4ccnc(OC5CC5)c4)C3)cn2)on1` [Example 34, 5-[5-({cis-3-[2-(cyclopropyloxy)pyridin-4-yl]cyclobutyl}oxy)pyrazin-2-yl]isoxazol-3-ol] showed an EC50 of 25 nM.

As to `Oc1cc(-c2ccc(OC3CC(c4ccc(F)cc4)C3)nc2)on1` (stereo not drawn) [Example 35, 5-(6-{[3-(4-fluorophenyl)cyclobutyl]oxy}pyridin-3-yl)isoxazol-3-ol trifluoroacetate], the EC50 came to 10 nM.

In turn, `Oc1cc(-c2ccc(OC3CC(c4ccccc4)C3)nc2)on1` (stereo not drawn) [Example 36, 5-{6-[(3-phenylcyclobutyl)oxy]pyridin-3-yl}isoxazol-3-ol trifluoroacetate] showed a half-maximal effective concentration (EC50) of 41 nM.

`Oc1cc(-c2ccc(O[C@H]3C[C@@H](C4CCCCC4)C3)nc2)on1` [Example 37, 2-[(cis-3-cyclohexylcyclobutyl)oxy]-5-(3-hydroxyisoxazol-5-yl)pyridinium chloride]: it took 161 nM to reach a half-maximal effect (EC50). This EC50 lies about 3.9-fold higher than the previous one.

`Oc1cc(-c2cnc(O[C@H]3C[C@@H](c4ccc(Cl)cc4)C3)cn2)on1` [Example 38, sodium 5-(5-{[cis-3-(4-chlorophenyl)cyclobutyl]oxy}pyrazin-2-yl)isoxazol-3-olate] came in with an EC50 of 17 nM. This EC50 is about 9.5-fold lower than that of the molecule before.

`Oc1cc(-c2cnc(O[C@H]3C[C@@H](c4cc(OC5CC5)ccc4F)C3)cn2)on1` [Example 39, 5-[5-({cis-3-[5-(cyclopropyloxy)-2-fluorophenyl]cyclobutyl}oxy)pyrazin-2-yl]isoxazol-3-ol] registered an EC50 of 48 nM.

Molecule `Oc1cc(-c2cnc(O[C@H]3C[C@@H](c4ccc5c(c4)OC(F)(F)O5)C3)cn2)on1` [Example 40, 5-(5-{[cis-3-(2,2-difluoro-1,3-benzodioxol-5-yl)cyclobutyl]oxy}pyrazin-2-yl)isoxazol-3-ol] displayed an EC50 of 16 nM. Against the preceding molecule, the EC50 is about 3-fold lower.

As for `Oc1cc(-c2cnc(O[C@H]3C[C@@H](c4cccc(OC(F)F)c4F)C3)cn2)on1` [Example 41, 5-[5-({cis-3-[3-(difluoromethoxy)-2-fluorophenyl]cyclobutyl}oxy)pyrazin-2-yl]isoxazol-3-ol], the 50% effective concentration (EC50) turned out to be 17 nM.
